Reference: US10590078B2, “Sodium channel blockers” (Daewoong Pharmaceutical Co., Ltd., priority 2015, dated 2020)

Molecular target: human sodium ion channel 1.7 (hNav1.7) (Homo sapiens, UniProt Q15858)
Assay: Blocking effect against sodium ion channel Nav1.7, IonFlux16 auto patch clamp in hNav1.7 HEK293 cells
Type: cell-based
Conditions: hNav1.7 HEK293 cells; inhibition of peak current after 50 seconds treatment; eight concentrations; read-out: IC50

Sequence of human sodium ion channel 1.7 (hNav1.7) (Q15858 whole entry): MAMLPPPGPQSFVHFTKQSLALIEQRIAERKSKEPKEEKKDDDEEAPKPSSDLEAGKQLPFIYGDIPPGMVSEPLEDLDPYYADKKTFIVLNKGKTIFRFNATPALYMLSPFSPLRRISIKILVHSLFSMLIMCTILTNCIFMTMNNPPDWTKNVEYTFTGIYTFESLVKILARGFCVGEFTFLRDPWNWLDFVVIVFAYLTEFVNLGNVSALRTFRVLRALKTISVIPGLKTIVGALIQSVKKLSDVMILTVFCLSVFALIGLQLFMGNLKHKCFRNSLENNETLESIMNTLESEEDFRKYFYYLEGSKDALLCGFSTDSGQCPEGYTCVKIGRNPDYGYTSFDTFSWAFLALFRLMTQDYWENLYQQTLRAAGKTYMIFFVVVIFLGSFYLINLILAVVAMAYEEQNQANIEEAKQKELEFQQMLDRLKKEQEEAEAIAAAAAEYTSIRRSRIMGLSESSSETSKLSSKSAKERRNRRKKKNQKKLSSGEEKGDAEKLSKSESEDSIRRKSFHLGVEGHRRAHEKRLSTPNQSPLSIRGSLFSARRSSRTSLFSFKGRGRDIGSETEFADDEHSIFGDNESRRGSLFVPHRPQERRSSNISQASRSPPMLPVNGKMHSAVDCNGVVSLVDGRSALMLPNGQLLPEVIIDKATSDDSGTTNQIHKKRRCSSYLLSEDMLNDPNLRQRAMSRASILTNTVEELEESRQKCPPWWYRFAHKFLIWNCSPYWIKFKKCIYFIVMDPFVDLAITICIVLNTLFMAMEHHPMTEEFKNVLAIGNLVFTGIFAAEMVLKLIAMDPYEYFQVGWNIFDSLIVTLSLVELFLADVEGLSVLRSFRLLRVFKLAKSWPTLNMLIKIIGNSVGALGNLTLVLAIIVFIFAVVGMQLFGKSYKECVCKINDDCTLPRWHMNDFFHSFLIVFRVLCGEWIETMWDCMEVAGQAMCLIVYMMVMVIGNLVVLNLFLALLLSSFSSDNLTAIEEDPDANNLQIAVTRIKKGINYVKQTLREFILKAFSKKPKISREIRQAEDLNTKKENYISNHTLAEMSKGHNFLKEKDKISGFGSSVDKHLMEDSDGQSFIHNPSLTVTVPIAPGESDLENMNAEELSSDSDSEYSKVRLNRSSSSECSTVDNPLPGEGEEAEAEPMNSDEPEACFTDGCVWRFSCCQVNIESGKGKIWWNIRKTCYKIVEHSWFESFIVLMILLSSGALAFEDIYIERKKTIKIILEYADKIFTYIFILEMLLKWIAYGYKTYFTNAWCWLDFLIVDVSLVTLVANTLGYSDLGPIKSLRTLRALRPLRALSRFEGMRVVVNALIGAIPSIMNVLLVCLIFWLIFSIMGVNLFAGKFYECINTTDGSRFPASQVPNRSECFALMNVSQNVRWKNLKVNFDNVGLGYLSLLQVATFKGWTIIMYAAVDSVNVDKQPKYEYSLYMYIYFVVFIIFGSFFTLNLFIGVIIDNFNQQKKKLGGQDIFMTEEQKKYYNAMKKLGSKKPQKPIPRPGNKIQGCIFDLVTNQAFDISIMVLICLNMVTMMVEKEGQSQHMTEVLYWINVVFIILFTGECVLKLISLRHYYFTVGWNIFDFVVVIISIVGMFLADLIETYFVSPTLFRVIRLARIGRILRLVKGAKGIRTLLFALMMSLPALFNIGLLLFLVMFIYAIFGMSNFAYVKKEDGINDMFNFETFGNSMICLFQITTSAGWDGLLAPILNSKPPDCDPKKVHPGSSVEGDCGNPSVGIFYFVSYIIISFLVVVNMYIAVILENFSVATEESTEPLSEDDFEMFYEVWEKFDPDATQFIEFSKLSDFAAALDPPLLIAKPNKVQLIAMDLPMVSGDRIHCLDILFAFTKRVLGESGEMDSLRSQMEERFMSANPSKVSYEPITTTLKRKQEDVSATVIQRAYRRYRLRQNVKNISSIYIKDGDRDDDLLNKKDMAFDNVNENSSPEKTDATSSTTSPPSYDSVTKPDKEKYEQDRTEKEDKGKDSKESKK

Structure (SMILES) | IC50 [nM]
CS(=O)(=O)NC(=O)c1cc(Cl)c(-n2nc(Cl)c3cc(-c4ccc(F)nc4)ccc32)cc1F [Example 245, 5-chloro-4-(3-chloro-5-(6-fluoropyridin-3-yl)-1H-indazol-1-yl)-2-fluoro-N-(methylsulfonyl)benzamide] | 1670
CS(=O)(=O)NC(=O)c1cc(Cl)c(-n2nc(-c3cn[nH]c3)c3cc(Cl)ccc32)cc1F [Example 89, 5-chloro-4-(5-chloro-3-(1H-pyrazol-4-yl)-1H-indazol-1-yl)-2-fluoro-N-(methylsulfonyl)benzamide] | > 10000
CS(=O)(=O)NC(=O)c1cc(Cl)c(-n2nc(Cl)c3cc(Oc4ccc(F)nc4)ccc32)cc1F [Example 47, 5-chloro-4-(3-chloro-5-((6-fluoropyridin-3-yl)oxy)-1H-indazol-1-yl)-2-fluoro-N-(methylsulfonyl)benzamide] | 437
CS(=O)(=O)NC(=O)c1cc(Cl)c(-n2nc(-c3ccc(F)c(F)c3)c3cc(F)ccc32)cc1F [Example 161, 5-chloro-4-(3-(3,4-difluorophenyl)-5-fluoro-1H-indazol-1-yl)-2-fluoro-N-(methylsulfonyl)benzamide] | 120
CC(Oc1ccc2c(c1)c(Cl)nn2-c1cc(F)c(C(=O)NS(C)(=O)=O)cc1Cl)c1ccc(F)cc1 (centres unmarked) [Example 39, 5-chloro-4-(3-chloro-5-(1-(4-fluorophenyl)ethoxy)-1H-indazol-1-yl)-2-fluoro-N-(methylsulfonyl)benzamide] | 280
CS(=O)(=O)NC(=O)c1cc(Cl)c(-n2nc(-c3ccc(F)c(F)c3)c3cc(Cl)ccc32)cc1F [Example 75, 5-chloro-4-(5-chloro-3-(3,4-difluorophenyl)-1H-indazol-1-yl)-2-fluoro-N-(methylsulfonyl)benzamide] | 180
Cn1nccc1-c1ccc2c(c1)c(Cl)nn2-c1cc(F)c(C(=O)NS(C)(=O)=O)cc1Cl [Example 256, 5-chloro-4-(3-chloro-5-(1-methyl-1H-pyrazol-5-yl)-1H-indazol-1-yl)-2-fluoro-N-(methylsulfonyl)benzamide] | 3990
CS(=O)(=O)NC(=O)c1cc(Cl)c(-n2nc(-c3cccc(Cl)c3F)c3cc(F)ccc32)cc1F [Example 163, 5-chloro-4-(3-(3-chloro-2-fluorophenyl)-5-fluoro-1H-indazol-1-yl)-2-fluoro-N-(methylsulfonyl)benzamide] | 120
CS(=O)(=O)NC(=O)c1ccc(-n2nc(-c3cccc(C#N)c3)c3ccccc32)c(C#N)c1 [Example 183, 3-cyano-4-(3-(3-cyanophenyl)-1H-indazol-1-yl)-N-(methylsulfonyl)benzamide] | > 10000
CS(=O)(=O)NC(=O)c1cc(Cl)c(-n2nc(-c3ccccc3C(F)(F)F)c3cc(F)ccc32)cc1F [Example 145, 5-chloro-2-fluoro-4-(5-fluoro-3-(2-(trifluoromethyl)phenyl)-1H-indazol-1-yl)-N-(methylsulfonyl)benzamide] | 110
CS(=O)(=O)NC(=O)c1cc(Cl)c(-n2ncc3c(Cl)c(F)ccc32)cc1F [Example 15, 5-chloro-4-(4-chloro-5-fluoro-1H-indazol-1-yl)-2-fluoro-N-(methylsulfonyl)benzamide] | 3090
Cc1nn(-c2cc(F)c(C(=O)NS(C)(=O)=O)cc2Cl)c2ccc([N+](=O)[O-])cc12 [Example 14, 5-chloro-2-fluoro-4-(3-methyl-5-nitro-1H-indazol-1-yl)-N-(methylsulfonyl)benzamide] | 3000 to 10000
CS(=O)(=O)NC(=O)c1cc(Cl)c(-n2nc(Cl)c3cc(OCC4CCCCC4)ccc32)cc1F [Example 34, 5-chloro-4-(3-chloro-5-(cyclohexylmethoxy)-1H-indazol-1-yl)-2-fluoro-N-(methylsulfonyl)benzamide] | 211
COc1ccc(-c2nn(-c3cc(Cl)c(C(=O)NS(C)(=O)=O)cc3F)c3ccc(Cl)cc23)cc1 [Example 108, 2-chloro-4-(5-chloro-3-(4-methoxyphenyl)-1H-indazol-1-yl)-5-fluoro-N-(methylsulfonyl)benzamide] | 1480
CS(=O)(=O)NC(=O)c1cc(Cl)c(-n2nc(Cl)c3cc(O)ccc32)cc1F [Example 16, 5-chloro-4-(3-chloro-5-hydroxy-1H-indazol-1-yl)-2-fluoro-N-(methylsulfonyl)benzamide] | > 10000
CS(=O)(=O)NC(=O)c1ccc(-n2nc(-c3cncc(Cl)c3)c3cc(Cl)ccc32)c(C#N)c1 [Example 104, 4-(5-chloro-3-(5-chloropyridin-3-yl)-1H-indazol-1-yl)-3-cyano-N-(methylsulfonyl)benzamide] | > 10000
CS(=O)(=O)NC(=O)c1cc(Cl)c(-n2nc(Cl)c3cc(Cl)cnc32)cc1F [Example 3, 5-chloro-4-(3,5-dichloro-1H-pyrazolo[3,4-b]pyridin-1-yl)-2-fluoro-N-(methylsulfonyl)benzamide] | 1130
O=c1[nH]nc(-c2cc(Cl)c(-n3nc(-c4ccc(Cl)cc4F)c4cc(Cl)ccc43)cc2F)[nH]1 [Example 291, 5-(5-chloro-4-(5-chloro-3-(4-chloro-2-fluorophenyl)-1H-indazol-1-yl)-2-fluorophenyl)-2,4-dihydro-3H-1,2,4-triazol-3-one] | 10800

These reach a lower IC50. Values come first.

IC50 [nM] | Structure (SMILES)
100 | CS(=O)(=O)NC(=O)c1cc(Cl)c(-n2nc(-c3cc(F)cc(Cl)c3)c3cc(F)ccc32)cc1F [Example 157, 5-chloro-4-(3-(3-chloro-5-fluorophenyl)-5-fluoro-1H-indazol-1-yl)-2-fluoro-N-(methylsulfonyl)benzamide]
98 | CS(=O)(=O)NC(=O)c1cc(Cl)c(-n2nc(Cl)c3cc(OCc4cccc(F)c4)ccc32)cc1F [Example 38, 5-chloro-4-(3-chloro-5-((3-fluorobenzyl)oxy)-1H-indazol-1-yl)-2-fluoro-N-(methylsulfonyl)benzamide]
94 | CS(=O)(=O)NC(=O)c1cc(Cl)c(-n2nc(-c3cccc(C(F)(F)F)c3)c3cc(Cl)ccc32)cc1F [Example 64, 5-chloro-4-(5-chloro-3-(3-(trifluoromethyl)phenyl)-1H-indazol-1-yl)-2-fluoro-N-(methylsulfonyl)benzamide]
87 | CS(=O)(=O)NC(=O)c1cc(Cl)c(-n2nc(Cl)c3cc(OCc4ccc(F)cc4)ccc32)cc1F [Example 36, 5-chloro-4-(3-chloro-5-((4-fluorobenzyl)oxy)-1H-indazol-1-yl)-2-fluoro-N-(methylsulfonyl)benzamide]
70 | CS(=O)(=O)NC(=O)c1cc(Cl)c(-n2cc(-c3ccc(Cl)cc3F)c3cc(F)cnc32)cc1F [Example 201, 5-chloro-4-(3-(4-chloro-2-fluorophenyl)-5-fluoro-1H-pyrrolo[2,3-b]pyridin-1-yl)-2-fluoro-N-(methylsulfonyl)benzamide]
60 | CS(=O)(=O)NC(=O)c1cc(Cl)c(-n2cc(-c3ccc(Cl)c(F)c3)c3cc(F)cnc32)cc1F [Example 210, 5-chloro-4-(3-(4-chloro-3-fluorophenyl)-5-fluoro-1H-pyrrolo[2,3-b]pyridin-1-yl)-2-fluoro-N-(methylsulfonyl)benzamide]
40 | CS(=O)(=O)NC(=O)c1cc(Cl)c(-n2nc(-c3cccc(Cl)c3)c3cc(F)ccc32)cc1F [Example 149, 5-chloro-4-(3-(3-chlorophenyl)-5-fluoro-1H-indazol-1-yl)-2-fluoro-N-(methylsulfonyl)benzamide]
33 | CS(=O)(=O)NC(=O)c1cc(Cl)c(-n2nc(-c3ccc(Cl)cc3)c3cc(Cl)ccc32)cc1F [Example 67, 5-chloro-4-(5-chloro-3-(4-chlorophenyl)-1H-indazol-1-yl)-2-fluoro-N-(methylsulfonyl)benzamide]
